Literature values as cited in patent USRE37771E1, “Purification of cinnamoyl-C-glycoside chromone” (Univera Pharmaceuticals, Inc., priority 1996, dated 2002).

Columns and labels:
epithelial cell lines = details: in vitro, details in related U.S. application Ser. No. 08/391,139
[1] = in vivo assays; details in related U.S. application Ser. No. 08/391,139

COc1cc(C)c2c(=O)cc(CC(C)O)oc2c1C1OC(CO)C(O)C(O)C1OC(=O)/C=C/c1ccccc1 [540 compound, 8-C-β-D-[2′-O-(E)-cinnamoyl]glycopyranosyl-2-[(S)-2-hydroxy]propyl-7-methoxy-5-methylchromone]
inhibition of EGF-induced DNA synthesis (epithelial cell lines): inhibit EGF-induced DNA synthesis | anti-inflammatory activity [1]: potent anti-inflammatory activity
